The source made the active and inactive calls. The calls are words filed in the database; no cut-off is given here.

From ChEMBL document CHEMBL3228004, “An attempt to apply lethal synthesis to the design of chemotherapeutic agents. Fluorinated 5 beta-(hydroxyethyl)-4-methylthiazoles” (J Med Chem, 1979) come the findings set out here.

Assay [1] relates to Escherichia coli. The assay is described as follows: Antibacterial activity against Escherichia coli B. It counts as functional, organism-based.
Assay [2] relates to Escherichia coli. Description: Antibacterial activity against Escherichia coli AS19. In kind it is functional, organism-based.

With `Cc1nc(F)sc1CCO`, the inhibition entry with Escherichia coli [1] and with Escherichia coli [2] was “inactive” each time.

As for `OCCc1scnc1C(F)(F)F`, the inhibition entry with Escherichia coli [1] and in the assay with Escherichia coli [2] was “inactive” in each case.
